Reference: US20240368161A1, “CYCLOPROPANECARBOXAMIDE-CONTAINING COMPOUNDS AND APPLICATION THEREOF” (CGENETECH (SUZHOU, CHINA) CO., LTD., priority 2022, published 2024)
Like-named read-outs stand apart in the source and are kept apart here.

Key:
JAK1 = JAK1 (Homo sapiens (Human), UniProt P23458); assay: JAK1 kinase inhibitory activity determination (HTRF Kinase-TK); type: biochemical; settings: JAK1 0.32 ng/μL, ATP 4 μM, substrate 1 μM, 4 h
Protocol: (§1) • JAK1: 0.32 ng/μL, ATP 4 M, substrate 1 μM, time 4 h • JAK2: 0.008 ng/μL, ATP 4 μM, substrate 1 M, time 2 h • JAK3: 0.1 ng/μL, ATP 3 μM, substrate 1 μM, time 3 h
(§2) The half-maximal inhibitory concentration (IC50) was fitted using GraphPad Prism 6 based on the kinase inhibition rates of the compound to be tested at different concentrations.

JAK2 = JAK2 (Homo sapiens (Human), UniProt O60674); assay: JAK2 kinase inhibitory activity determination (HTRF Kinase-TK); type: biochemical; settings: JAK2 0.008 ng/μL, ATP 4 μM, substrate 1 μM, 2 h
JAK2, sequence (O60674 826-1132): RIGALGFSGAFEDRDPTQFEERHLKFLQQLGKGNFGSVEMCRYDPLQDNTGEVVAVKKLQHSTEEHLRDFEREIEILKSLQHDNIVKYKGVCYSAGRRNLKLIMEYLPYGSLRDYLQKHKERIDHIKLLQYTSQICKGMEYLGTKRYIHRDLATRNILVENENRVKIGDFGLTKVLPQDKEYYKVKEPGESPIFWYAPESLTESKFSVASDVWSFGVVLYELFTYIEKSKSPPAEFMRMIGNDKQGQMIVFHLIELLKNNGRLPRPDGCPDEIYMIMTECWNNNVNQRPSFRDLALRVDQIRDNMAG
Protocol: as §1, §2

JAK3 = JAK3 (Homo sapiens (Human), UniProt P52333); assay: JAK3 kinase inhibitory activity determination (HTRF Kinase-TK); type: biochemical; settings: JAK3 0.1 ng/μL, ATP 3 μM, substrate 1 μM, 3 h
JAK3, sequence (P52333 795-1124): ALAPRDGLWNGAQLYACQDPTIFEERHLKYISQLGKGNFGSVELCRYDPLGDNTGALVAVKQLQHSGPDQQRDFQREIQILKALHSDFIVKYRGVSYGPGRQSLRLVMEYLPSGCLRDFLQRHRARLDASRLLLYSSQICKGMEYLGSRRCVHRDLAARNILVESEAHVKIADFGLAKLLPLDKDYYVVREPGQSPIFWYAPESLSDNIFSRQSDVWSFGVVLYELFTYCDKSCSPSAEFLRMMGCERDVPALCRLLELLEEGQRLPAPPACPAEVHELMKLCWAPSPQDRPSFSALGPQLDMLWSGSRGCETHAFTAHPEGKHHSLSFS
Protocol: as §1
At the end of incubation, HTRF665/620 signals were read on a multifunctional microplate reader.
as §2

[1] = Oral pharmacokinetic determination in mice; type: in vivo, C57 mice; settings: for AUC(0-inf) / AUC(0-t) / Cmax / Tmax / MRT last / MRT inf / half-life: mouse, male C57 mice, plasma; for MRT last: read-out: MRT(0-t); for MRT inf: read-out: MRT(0-∞); for half-life: read-out: T½ (converted)
Protocol: Three healthy male C57 mice, aged 6-8 weeks, were purchased from Shanghai Sippr-BK Laboratory Animal Co. Ltd. (Shanghai, China).
Mice were fasted overnight prior to oral administration, and food supply was resumed 4 h after administration with free access to water. […] blood sampling; approximately 30 μL of blood was collected from the tested animals at 0.125 h, 0.25 h, 0.5 h, 1 h, 2 h, 4 h, 8 h, and 24 h, respectively, after administration and placed in test tubes containing the anticoagulant sodium heparin, which were placed on ice until centrifugation, and within 15 min, centrifuged in a centrifuge at 6800 g for 6 min at 6-8° C., and within 1 h of blood collection/centrifugation, plasma was transferred to appropriately labeled tubes and stored frozen at about −80° C.
Mass spectrometry method: LC-MS/MS-19 (TQ5500) (SCIEX, USA), ion source: ESI source, detection mode: positive ion detection, scanning mode: multi-reaction monitoring (MRM) mode, m/z: 271.10/172.00 Da (Tolbutamide, internal standard).
To 10 μL of the plasma sample, was added 200 μL of internal standard working solution (Tolbutamide, 100 ng/mL), with vortex for 1 min, followed by centrifugation for 10 min at 18,000 g. 200 μL of a supernatant was transferred to a 96-well low volume plate, and 1 μL of the supernatant was taken and injected into LC-MS/MS for analysis.
Pharmacokinetic (PK) parameters were calculated using Phoenix WinNonlin 7.0 software, and oral pharmacokinetic parameters of mice including AUC, Cmax, Tmax, T½, etc., were estimated by the non-compartment model.

JAK1, sequence (P23458 866-1154): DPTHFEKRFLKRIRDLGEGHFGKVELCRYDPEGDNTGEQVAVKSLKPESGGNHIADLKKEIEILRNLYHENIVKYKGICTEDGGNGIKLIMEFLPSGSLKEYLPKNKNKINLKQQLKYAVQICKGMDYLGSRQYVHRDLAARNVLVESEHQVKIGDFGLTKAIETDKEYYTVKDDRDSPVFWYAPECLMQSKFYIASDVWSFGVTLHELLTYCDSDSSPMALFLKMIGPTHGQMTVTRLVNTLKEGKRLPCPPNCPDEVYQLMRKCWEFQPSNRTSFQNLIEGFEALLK

SMILES	IC50 (JAK1)	IC50 (JAK2)	IC50 (JAK3)	also measured
O=C(Nc1nc2cccc(-c3ccc(CN4CCS(=O)(=O)CC4)cc3)n2n1)C1C[C@H]1F (some centres unmarked) [Compound 26]	1250 nM	1090 nM	3450 nM	
O=C(Nc1cn2c(-c3ccc(ON4CC[S+]([O-])CC4)cc3)cccc2n1)C1CC1 [Compound 21]	247 nM	592 nM		
CCCCC(CC#N)n1cc(-c2cccc3nc(NC(=O)C4CC4)cn23)cn1 (centres unmarked) [Compound 7]	7.62 nM	1.72 nM		
O=C(Nc1nc2cccc(-c3ccc(CN4CCS(=O)(=O)CC4)cc3)n2n1)C1CC1 [Filgotinib, reference compound]				AUC(0-inf) ([1]; oral, dose 5 mg/kg): 2190 ng·h/mL; AUC(0-t) ([1]; oral, dose 5 mg/kg): 2120 ng·h/mL; Cmax ([1]; oral, dose 5 mg/kg): 1710 ng/mL; Tmax ([1]; oral, dose 5 mg/kg): 0.25 h; MRT last ([1]; oral, dose 5 mg/kg): 1.54 h; MRT inf ([1]; oral, dose 5 mg/kg): 1.82 h; half-life ([1]; oral, dose 5 mg/kg): 1.79 h
CS(=O)(=O)C1CN(Cc2ccc(-c3cccc4nc(NC(=O)C5CC5)cn34)cc2)C1 [Compound 15]				systemic exposure (AUC) per unit dose compared to Filgotinib ([1]; mice, oral, unit dose comparison): higher systemic exposure; AUC(0-inf) ([1]; oral (gavage), dose 10 mg/kg): 9880 ng·h/mL; AUC(0-t) ([1]; oral (gavage), dose 10 mg/kg): 9750 ng·h/mL; Cmax ([1]; oral (gavage), dose 10 mg/kg): 6220 ng/mL; Tmax ([1]; oral (gavage), dose 10 mg/kg): 0.29 h; MRT last ([1]; oral (gavage), dose 10 mg/kg): 1.6 h; MRT inf ([1]; oral (gavage), dose 10 mg/kg): 1.7 h; half-life ([1]; oral (gavage), dose 10 mg/kg): 1.31 h
N#CCC(C1CC1)n1cc(-c2cccc3nc(NC(=O)C4CC4)cn23)cn1 (centres unmarked) [Compound 2]	77 nM	13.5 nM		
N#CCC(C1CCCC1)n1cc(-c2cccc3nc(NC(=O)C4CC4)nn23)cn1 (centres unmarked) [Compound 11]	36.6 nM	6.28 nM		
N#CCC1(n2cc(-c3cccc4nc(NC(=O)C5CC5)cn34)cn2)CCCCC1 [Compound 14]	115 nM	6.7 nM		
CCC(CC#N)n1cc(-c2cccc3nc(NC(=O)C4CC4)cn23)cn1 (centres unmarked) [Compound 4]	19.5 nM	4.68 nM		
O=C(Nc1nc2cccc(-c3ccc(CN4CCS(=O)(=O)CC4)cc3)n2n1)C1C[C@@H]1F (some centres unmarked) [Compound 27]	1080 nM	415 nM	1920 nM	
N#CCC(CC1CC1)n1cc(-c2cccc3nc(NC(=O)C4CC4)cn23)cn1 (centres unmarked) [Compound 3]	37.8 nM	6.87 nM		
COCC(CC#N)n1cc(-c2cccc3nc(NC(=O)C4CC4)cn23)cn1 (centres unmarked) [Compound 6]	48.9 nM	9.49 nM		
N#CCC(C1CCCC1)n1cc(-c2cccc3nc(NC(=O)C4CC4)cn23)cn1 (centres unmarked) [Compound 1]	57.6 nM	4.13 nM		
CCCC(CC#N)n1cc(-c2cccc3nc(NC(=O)C4CC4)cn23)cn1 (centres unmarked) [Compound 5]	14 nM	1.81 nM		

Continued, in another order:

IC50 (JAK1)	IC50 (JAK2)	IC50 (JAK3)	SMILES	also measured
26.2 nM	24.2 nM	94.9 nM	O=C(Nc1cn2c(-c3ccc(CN4CCC(F)(F)CC4)cc3)cccc2n1)C1CC1 [Compound 28]	
387 nM	162 nM	5590 nM	CCS(=O)(=O)C1CCN(Cc2ccc(-c3cccc4nc(NC(=O)C5CC5)cn34)cc2)CC1 [Compound 30]	
182 nM	90.3 nM	909 nM	O=C(Nc1nc2cccc(-c3ccc(OC4CCS(=O)(=O)CC4)cc3)n2n1)C1CC1 [Compound 19]	
10 nM	0.7 nM		N#CCC1(n2cc(-c3cccc4nc(NC(=O)C5CC5)cn34)cn2)CCC(F)(F)CC1 [Compound 12]	
3640 nM	1580 nM	> 10000 nM	O=C(Nc1nc2cccc(-c3ccc(CN4CCS(=O)(=O)CC4)cc3)n2n1)C1(F)CC1 [Compound 24]	
8.4 nM	0.8 nM	46.8 nM	N#CCC1(n2cc(-c3cccc4nc(NC(=O)C5CC5)cn34)cn2)CCC(C(F)(F)F)CC1 (centres unmarked) [Compound 13]	
6.64 nM	1.24 nM		N#CCC(CCC(F)(F)F)n1cc(-c2cccc3nc(NC(=O)C4CC4)cn23)cn1 (centres unmarked) [Compound 10]	
590 nM	1980 nM	7780 nM	O=C(Nc1nc2cccc(-c3ccc(CN4CCS(=O)(=O)CC4)cc3)n2n1)C1CC1(F)F (centres unmarked) [Compound 25]	
675 nM	463 nM	8280 nM	CC(C)CS(=O)(=O)C1CCN(Cc2ccc(-c3cccc4nc(NC(=O)C5CC5)cn34)cc2)CC1 [Compound 33]	
28.3 nM	13.4 nM		COCCC(CC#N)n1cc(-c2cccc3nc(NC(=O)C4CC4)cn23)cn1 (centres unmarked) [Compound 9]	
956 nM	448 nM	9640 nM	CC(C)S(=O)(=O)C1CCN(Cc2ccc(-c3cccc4nc(NC(=O)C5CC5)cn34)cc2)CC1 [Compound 32]	
88.7 nM	170 nM	6110 nM	O=C(Nc1cn2c(-c3ccc(CN4CCS(=O)(=O)CC4)cc3F)cccc2n1)C1CC1F (centres unmarked) [Compound 29]	
